Laboratory results: publication PMC11999280, “Design and screening of novel endosomal escape compounds that enhance functional delivery of oligonucleotides in vitro” (Molecular Therapy. Nucleic Acids, 2025)

Assays:
Assay type in all cases: cell-based
[1] = tested on: mCherry-GAL9 expressing HepG2 cells; assay: GAL9 recruitment assay, HepG2; conditions: calculated mean from >3 independent exp.
Method: (§1) Experiments assessing GAL9 localization as an indicator for endosomal remodeling were performed as previously described[15] using 8× stablemCherry-GAL9 expressing cell lines, SHSY5Y, U2OS, 16HBE, NCI-H358, HuH7, HepG2, HEK293, and HeLa. For mCherry-GAL9 recruitment, 3,000 or 6,500 cells/well (depending upon cell line) were seeded into 384-well CellCarrier Ultra plates 24 h prior to treatment (PerkinElmer, catalog no. 6007558). An Echo 655T acoustic dispenser (Labcyte) was used for EEE dose-response preparation by transferring to the cell plate. At assay endpoints, cells were PBS washed, 4% paraformaldehyde fixed at room temperature […] (VWR, catalog no. 9713.1000), and nuclei stained with PBS +1 μg/mL Hoechst 33342 (Thermo Fisher Scientific, catalog no. H21492).
(§2) Imaging was performed using a spinning-disk confocal microscope (Yokogawa: CV8000) with a ×20w objective (numerical aperture 1.0). Cells and mCherry-GAL9 structure identification and quantification were done using Columbus image-analysis software (PerkinElmer version 2.9.0). Data processing was done using Spotfire (Tibco version 11.4) and Prism (GraphPad version 9.1.0). Image panels were assembled using the FigureJ plugin for FIJI.[43] All mCherry-GAL9 experiments were performed three times (N = 3) with duplicated wells per treatment (n = 2).

[2] = tested on: mCherry-GAL9 expressing 16HBE cells; assay: GAL9 recruitment assay, 16HBE; conditions: calculated mean from >3 independent exp.
Method: as §1, §2

[3] = tested on: mCherry-GAL9 expressing HeLa cells; assay: GAL9 recruitment assay, HeLa; conditions: calculated mean from >3 independent exp.
Method: as §1, §2

[4] = tested on: mCherry-GAL9 expressing NCI-H358 cells; assay: GAL9 recruitment assay, NCI-H358; conditions: calculated mean from >3 independent exp.
Method: as §1, §2

[5] = tested on: HeLa_Luc705 cells (pLuc/705 splice-switching reporter); assay: Functional 705-SSO delivery, luciferase splice-switching assay; conditions: HeLa-Luc705 + 2 µM SSO, mean from >3 independent experiments
Description: Therefore, next, we functionally screened the SSO delivery in the HeLa_Luc705 reporter cell line. HeLa_Luc705 carries a pLuc/705 splice-switching reporter luciferase gene interrupted by a mutated β-globin intron, which creates a preferentially used cryptic 5′ splice site leading to aberrant splicing. Functional SSO delivery masks the cryptic site, redirecting the splicing machinery to the right splicing site, allowing the measurement of luciferase expression (Figure S1).[25]^,[26]^,[27]^,[28] We used SSO transfection with LF2000 as transfection control and the previously published endosomal escape enhancer CMP05 (here, EEE2) as positive control.[15]
For the assessment of functional SSO therapeutics, a HeLa_Luc705 cell line was grown in DMEM media supplemented with 10% fetal bovine serum (FBS). For most treatments, 10,000 cells/well were seeded in a 96-well plate, 24 h pre-incubated with 1- to 2-μM oligonucleotide, and then treated at the described EEE concentration. At 24 h post-treatment, cells were PBS rinsed and collected for further analysis (treatments and incubation times changed accordingly to the experiment design). Luciferase readout was performed as previously described,[15] using a GloMax 96-well plate microplate luminometer (Promega) immediately after adding 30 μL auto-injected luciferin substrate (Promega Firefly Luciferase Assay System; Thermo Scientific, catalog no. 16174) in a white-walled 96-well plate containing 30 μL 0.1% Triton X-100 (Sigma-Aldrich) cell lysed. Photon exposure time and delay were set to 10 and 2 s after injection. LF2000 was used as the transfection reagent control (Thermo Scientific, catalog no. 11668019). For EEE experiments using 1 or 2 μM SSOs, the control was prepared using lipofection with 100–200 nM SSO; this is to avoid complex induced cell toxicity.
705-SSO was purchased from and synthesized by Integrated DNA Technologies. The 705-SSO sequence was previously published, containing 2′-O-methylated bases and only phosphorothioate-saturated backbone linkages were included.[15] The 705-SSO was high-performance liquid chromatography purified, shipped, and stored in IDTE buffer (10 mM Tris, 0.1 mM EDTA).

[6] = tested on: mCherry-GAL9 expressing HEK293 cells; assay: GAL9 recruitment assay, HEK293; conditions: calculated mean from >3 independent exp.
Method: as §1, §2

[7] = tested on: mCherry-GAL9 expressing HuH7 cells; assay: GAL9 recruitment assay, HuH7; conditions: calculated mean from >3 independent exp.
Method: as §1, §2

[8] = tested on: mCherry-GAL9 expressing SHSY5Y cells; assay: GAL9 recruitment assay, SHSY5Y; conditions: calculated mean from >3 independent exp.
Method: as §1, §2

[9] = tested on: mCherry-GAL9 expressing U2OS cells; assay: GAL9 recruitment assay, U2OS; conditions: calculated mean from >3 independent exp.
Method: as §1, §2

## COc1nn(C2CCNCC2)cc1Nc1ncc(F)c(-c2c[nH]c3ccccc23)n1 [EEE23]
[1]; EEE 0.31 µM
  Gal9 response compared to reference: 0.006
[1]; EEE 0.62 µM
  Gal9 response compared to reference: 0.006
[1]; EEE 1.25 µM
  Gal9 response compared to reference: 0.007
[1]; EEE 2.5 µM
  Gal9 response compared to reference: 0.005
[1]; EEE 5 µM
  Gal9 response compared to reference: 0.004
[1]; EEE 10 µM
  Gal9 response compared to reference: 0.005
[2]; EEE 0.31 µM
  Gal9 response compared to reference: 0.008
[2]; EEE 0.62 µM
  Gal9 response compared to reference: 0.010
[2]; EEE 1.25 µM
  Gal9 response compared to reference: 0.010
[2]; EEE 2.5 µM
  Gal9 response compared to reference: 0.012
[2]; EEE 5 µM
  Gal9 response compared to reference: 0.017
[2]; EEE 10 µM
  Gal9 response compared to reference: 0.032
[3]; EEE 0.31 µM
  Gal9 response compared to reference: 0.004
[3]; EEE 0.62 µM
  Gal9 response compared to reference: 0.005
[3]; EEE 1.25 µM
  Gal9 response compared to reference: 0.004
[3]; EEE 2.5 µM
  Gal9 response compared to reference: 0.005
[3]; EEE 5 µM
  Gal9 response compared to reference: 0.005
[3]; EEE 10 µM
  Gal9 response compared to reference: 0.008
[4]; EEE 0.31 µM
  Gal9 response compared to reference: 0.013
[4]; EEE 0.62 µM
  Gal9 response compared to reference: 0.015
[4]; EEE 1.25 µM
  Gal9 response compared to reference: 0.012
[4]; EEE 2.5 µM
  Gal9 response compared to reference: 0.017
[4]; EEE 5 µM
  Gal9 response compared to reference: 0.017
[4]; EEE 10 µM
  Gal9 response compared to reference: 0.021
[5]; EEE 5 µM
  Luciferase expression compared to reference: 65.259
[5]; EEE 1-1.25 µM
  Luciferase expression compared to reference: 0.775
[5]; EEE 2.5 - 3 µM
  Luciferase expression compared to reference: 1.207
[6]; EEE 0.31 µM
  Gal9 response compared to reference: 0.019
[6]; EEE 0.62 µM
  Gal9 response compared to reference: 0.015
[6]; EEE 1.25 µM
  Gal9 response compared to reference: 0.015
[6]; EEE 2.5 µM
  Gal9 response compared to reference: 0.016
[6]; EEE 5 µM
  Gal9 response compared to reference: 0.025
[6]; EEE 10 µM
  Gal9 response compared to reference: 0.042
[7]; EEE 0.31 µM
  Gal9 response compared to reference: 0.007
[7]; EEE 0.62 µM
  Gal9 response compared to reference: 0.008
[7]; EEE 1.25 µM
  Gal9 response compared to reference: 0.009
[7]; EEE 2.5 µM
  Gal9 response compared to reference: 0.009
[7]; EEE 5 µM
  Gal9 response compared to reference: 0.010
[7]; EEE 10 µM
  Gal9 response compared to reference: 0.011
[8]; EEE 0.31 µM
  Gal9 response compared to reference: 0.013
[8]; EEE 0.62 µM
  Gal9 response compared to reference: 0.015
[8]; EEE 1.25 µM
  Gal9 response compared to reference: 0.013
[8]; EEE 2.5 µM
  Gal9 response compared to reference: 0.013
[8]; EEE 5 µM
  Gal9 response compared to reference: 0.017
[8]; EEE 10 µM
  Gal9 response compared to reference: 0.087
[9]; EEE 0.31 µM
  Gal9 response compared to reference: 0.011
[9]; EEE 0.62 µM
  Gal9 response compared to reference: 0.012
[9]; EEE 1.25 µM
  Gal9 response compared to reference: 0.015
[9]; EEE 2.5 µM
  Gal9 response compared to reference: 0.015
[9]; EEE 5 µM
  Gal9 response compared to reference: 0.012
[9]; EEE 10 µM
  Gal9 response compared to reference: 0.017
